Active and inactive are the calls of the source. The rule behind the calls is not given here.
Tests used:
[1] = Cmax in NOD SCID nude mouse plasma xenografted with ZR-75-1 cells assessed as floxuridine; 5-fluoro-2-deoxyuridine concentration at 90 mg/kg, iv measured up to 24 hrs by HPLC-MS/MS analysis; type: ADME, organism-based; design: route intravenous, dose 90 mg/kg, time <=24; details: in vivo
[2] = Cmax in NOD SCID nude mouse tumour xenografted with ZR-75-1 cells assessed as floxuridine; 5-fluoro-2-deoxyuridine concentration at 90 mg/kg, iv measured up to 24 hrs by HPLC-MS/MS analysis; type: ADME, organism-based, Neoplasm; design: route intravenous, dose 90 mg/kg, time <=24; details: in vivo
[3] = tested on: MIA PaCa-2; assay: Potency index, ratio of FUdR GI50 to test compound GI50 for growth inhibition of human MIA-PaCa-2 cells; type: functional
[4] = Half life of compound in human MDA-MB-231 cell homogenate; type: ADME, tissue-based
[5] = Half life of compound in PBS buffer at pH 7.4 at 200 uM by HPLC analysis; type: physicochemical
[6] = Toxicity in NOD SCID nude mouse xenografted with human MIA PaCa-2 cells assessed as body weight at 90 mg/kg, iv for 20 days (reference value: 28.4 +/- 2.1g); type: organism-based; details: in vivo, 480 h, time 20 day
[7] = tested on: MIA PaCa-2; assay: Antitumour activity against human MIA-PaCa-2 cells xenografted in NOD SCID nude mouse assessed as tumour inhibition at 90 mg/kg, iv administered for 20 days measured every 2 day by caliper method relative to control; type: functional; details: MIA PaCa-2, iv, 480 h, time 20 day
[8] = Half life of compound in human ZR-75-1 cell homogenate; type: ADME, tissue-based
[9] = Ratio of AUC (0 to t) in NOD SCID nude mouse plasma xenografted with ZR-75-1 cells to AUC (0 to t) in NOD SCID mouse tumour xenografted with ZR-75-1 cells; type: ADME, cell-free, Tumor/Plasma
[10] = target: T1, Sodium- and chloride-dependent neutral and basic amino acid transporter B(0+) (Homo sapiens, UniProt Q9UN76); assay: Substrate activity at SLC6A14 (unknown origin) expressed in Xenopus laevis oocytes assessed as ABT0+ mediated drug uptake at 0.5 mM incubated for 10 mins by HPLC analysis; type: ADME, cell-based; details: oocyte, 500 µM
T1 sequence (Q9UN76 whole entry): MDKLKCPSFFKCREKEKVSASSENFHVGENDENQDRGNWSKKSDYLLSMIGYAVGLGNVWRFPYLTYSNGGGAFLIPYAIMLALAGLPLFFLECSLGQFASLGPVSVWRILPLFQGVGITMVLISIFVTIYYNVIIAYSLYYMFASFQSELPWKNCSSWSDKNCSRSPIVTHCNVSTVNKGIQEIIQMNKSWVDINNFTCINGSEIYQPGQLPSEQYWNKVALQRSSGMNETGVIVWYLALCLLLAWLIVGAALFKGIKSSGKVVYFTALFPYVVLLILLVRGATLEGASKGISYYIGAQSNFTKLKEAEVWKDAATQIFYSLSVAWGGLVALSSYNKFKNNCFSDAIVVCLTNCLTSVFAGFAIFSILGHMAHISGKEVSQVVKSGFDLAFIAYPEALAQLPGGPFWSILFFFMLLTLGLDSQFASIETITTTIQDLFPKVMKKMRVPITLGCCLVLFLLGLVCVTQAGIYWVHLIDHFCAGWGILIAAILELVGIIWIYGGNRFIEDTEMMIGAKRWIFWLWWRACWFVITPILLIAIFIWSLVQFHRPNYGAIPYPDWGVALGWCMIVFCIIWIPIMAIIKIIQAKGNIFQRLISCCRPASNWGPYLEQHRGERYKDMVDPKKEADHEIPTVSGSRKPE

[11] = target: T2, Sodium- and chloride-dependent neutral and basic amino acid transporter B(0+) (Homo sapiens) (UniProt Q9UN76); assay: Substrate activity at SLC6A14 (unknown origin) expressed in Xenopus laevis oocytes assessed as inhibition of drug uptake at 0.5 mM incubated for 10 mins in presence of glycine by HPLC analysis relative to control; type: cell-based; details: Oocyte
T2 sequence (whole entry): T1 sequence (Q9UN76 whole entry)

[12] = target: T3, Solute carrier family 15 member 1 (Homo sapiens, UniProt P46059); assay: Substrate activity at PEPT1 (unknown origin) expressed in MDCK cells assessed as inhibition of gly-sar uptake incubated for 10 mins by HPLC/MS/MS analysis; type: cell-based
T3 sequence (P46059 whole entry): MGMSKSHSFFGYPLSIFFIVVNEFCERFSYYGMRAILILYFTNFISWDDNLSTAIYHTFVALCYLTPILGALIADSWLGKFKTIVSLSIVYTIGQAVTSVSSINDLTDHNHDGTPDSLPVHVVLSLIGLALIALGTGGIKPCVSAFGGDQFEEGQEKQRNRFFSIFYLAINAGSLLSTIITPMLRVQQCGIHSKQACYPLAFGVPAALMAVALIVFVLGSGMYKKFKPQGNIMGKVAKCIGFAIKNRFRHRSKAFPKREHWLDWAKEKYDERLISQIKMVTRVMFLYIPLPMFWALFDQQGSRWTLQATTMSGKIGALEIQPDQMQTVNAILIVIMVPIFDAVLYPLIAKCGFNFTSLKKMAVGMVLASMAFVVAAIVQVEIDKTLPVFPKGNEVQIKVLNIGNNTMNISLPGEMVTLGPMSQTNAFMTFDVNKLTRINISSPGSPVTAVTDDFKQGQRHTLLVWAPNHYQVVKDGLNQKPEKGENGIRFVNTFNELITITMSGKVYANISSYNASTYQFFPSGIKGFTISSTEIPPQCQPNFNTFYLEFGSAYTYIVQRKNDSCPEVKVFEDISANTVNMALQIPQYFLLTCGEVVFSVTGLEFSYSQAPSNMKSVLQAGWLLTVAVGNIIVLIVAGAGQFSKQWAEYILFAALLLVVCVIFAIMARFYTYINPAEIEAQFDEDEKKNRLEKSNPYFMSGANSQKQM

[13] = target: T1, Sodium- and chloride-dependent neutral and basic amino acid transporter B(0+); assay: Substrate activity at SLC6A14 (unknown origin) expressed in Xenopus laevis oocytes assessed as inhibition of glycine uptake incubated for 10 mins by HPLC/MS/MS analysis; type: cell-based, Oocyte
[14] = target: T2, Sodium- and chloride-dependent neutral and basic amino acid transporter B(0+) (Homo sapiens); assay: Substrate activity at SLC6A14 (unknown origin) expressed in Xenopus laevis oocytes assessed as increase in ABT0+ mediated drug uptake at 1 mM in presence of Na+ ion by HPLC analysis; type: cell-based; details: Oocyte

N[C@@H](CC(=O)OC[C@H]1O[C@@H](n2cc(F)c(=O)[nH]c2=O)C[C@@H]1O)C(=O)O
Cmax [1]: 145.9 ng/mL | Cmax [2]: 700.2 ng/g | RatioGI50 [3]: 7 | half-life [4]: 11.1 min | half-life at 200 µM [5]: 286 min | Activity [6]: 26.3 g | inhibition in vivo at 90 mg/kg [7]: 62.4% | half-life [8]: 13.4 min | Ratio [9]: 3.9 | Drug uptake [10]: 2.97 nmol/mg/min | inhibition [11]: 50% | IC50 [12]: 10.2 mM | IC50 [13]: 0.82 mM | Activity [14]: Active

Reference: ChEMBL document CHEMBL4665787, “Bifunctional and Unusual Amino Acid β- or γ-Ester Prodrugs of Nucleoside Analogues for Improved Affinity to ATB and Enhanced Metabolic Stability: An Application to Floxuridine” (J Med Chem, 2020)
